Assay results published in PubChem BioAssay AID1963978 (Molecular Pharmacology Branch, DTP, NCI, 2024).

Tested on: 616215-338-R-J1-PDC spheroids with HUVEC/MSC, viability
Experiment: Anticancer human tumor 616215-338-R-J1-PDC patient-derived colon adenocarcinoma cell line growth inhibition [PI3K]
Conditions: for viability, T/C: stronger effect = lower value; active = viability on the fitted dose curve at most 10% of control; inactive = the rest
From the text: Combinatorial screen of targeted agents with the PI3K inhibitors inavolisib, alpelisib, duvelisib, and copanlisib in multi-cell type tumor spheroids
A high-throughput screen of multi-cell type tumor spheroids was designed to identify active combinations of targeted small molecules and PI3K pathway inhibitors. Complex spheroids include a stromal component modeled by human endothelial cells (HUVEC) and fibroblasts modeled by human mesenchymal stem cells (MSCs). The concentration ranges selected for each drug and investigational agent were based upon clinically achievable concentrations if the clinical Cmax of the agent was known.
Compounds. The drugs and investigational agents: inavolisib (NSC800729), alpelisib (NSC765974), duvelisib (NSC772469), copanlisib (NSC816437), ipatasertib (NSC767898), afuresertib (NSC778305), talazoparib (NSC767125), sapanisertib (NSC764658), selumetinib (NSC741078), tovorafenib (DAY101, NSC766906), vemurafenib (NSC761431), ravoxertinib (NSC781343), sotorasib (NSC818433), MRTX1133 (NSC 836407), abemaciclib (NSC 768073), palbociclib (NSC758247), venetoclax (NSC 766270), SY5609 (NSC837396), enzalutamide (NSC755605), and darolutamide (NSC825331), were obtained from the National Cancer Institute (NCI) Developmental Therapeutics Program Chemical Repository. The FDA-approved anticancer drug set is available from the NCI Developmental Therapeutics Program. […] The stock solutions were prepared in dimethyl sulfoxide (DMSO, Sigma-Aldrich, St. Louis, MO, cat. D2650) at 800-fold the tested concentration and stored at -70 degrees C prior to their use. All drugs and investigational agents were tested over a range starting from a high concentration at or near the clinical Cmax and decreasing in half-log increments. If the clinical Cmax for an agent had not been determined, the highest concentration tested was 10 microM.
Cell Culture. All cells were maintained in an incubator at 37 degrees C and 5% CO2 with 95% humidity. The PDC lines were cultured according to standard operating procedures established by the NCI PDMR (https://pdmr.cancer.gov/sops/default.htm). All PDCs were thawed and cultured in Matrigel-coated flasks prepared with a working solution of 1X Ham's F-12 nutrient mix, without supplementation (Invitrogen, Waltham, MA, cat. 11765054), 100 U/mL penicillin-streptomycin (Invitrogen, cat. 15140122), and 2.5% Matrigel (Corning Inc., Corning, NY, cat. 354248) for the first three passages. The 354836-022-R-J1-PDC, 475296-252-R-J1-PDC, and 997726-040-R-J2-PDC lines were cultured in 6A media, which includes advanced DMEM/F-12 (Thermo Fisher Scientific, cat. 12634028), 10 mM HEPES (Thermo Fisher Scientific, cat. 15630080), 1X GlutaMAX supplement (Thermo Fisher Scientific, cat. 35050061), 0.1 mg/mL primocin (InvivoGen, San Diego, CA, cat. ant-pm-2), 10% defined fetal bovine serum, heat inactivated (HyClone Laboratories Inc., Logan, UT, cat. SH30070.03HI), 50% L-WRN conditioned media (ATCC, cat. CRL-3276), 1.25 mM N-Acetyl-L-cysteine (Sigma-Aldrich, cat. A9165), 10 mM nicotinamide (Sigma-Aldrich, cat. N0636), 1X B-27 supplement (Thermo Fisher Scientific, cat. 17504044), 1X N-2 supplement (Thermo Fisher Scientific, cat. 17502048), and 10 microM Y-27632 dihydrochloride (Tocris Bioscience, Bristol, United Kingdom, cat. 1254). The 624824-186-R-J2-PDC line was cultured in 6C/Colon 1B media, which includes all 6A media components plus 50 ng/mL human EGF recombinant protein (Thermo Fisher Scientific, cat. PHG0311). […]
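Also: spheroids exposed to agents for seven days before the viability read.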

Cn1ncnc1[C@H]1c2n[nH]c(=O)c3cc(F)cc(c23)N[C@@H]1c1ccc(F)cc1 + CC(Nc1ccc2c(c1)OCCn1cc(N3C(=O)OCC3C(F)F)nc1-2)C(N)=O
> 100 nM: IC50 (curve of first compound, second compound 0.00316 µM) | IC50 (curve of first compound, second compound 0.01 µM) | IC50 (curve of first compound, second compound 0.0316 µM) | IC50 (curve of first compound, second compound 0.1 µM) | IC50 (curve of first compound, second compound 0.316 µM) | IC50 (curve of first compound, second compound 1 µM)
inactive: viability, T/C (second compound 0.00316 µM, first compound 0.000316 µM) 100% | viability, T/C (second compound 0.00316 µM, first compound 0.001 µM) 90.8% | viability, T/C (second compound 0.00316 µM, first compound 0.00316 µM) 98.3% | viability, T/C (second compound 0.00316 µM, first compound 0.01 µM) 103% | viability, T/C (second compound 0.00316 µM, first compound 0.0316 µM) 88.8% | viability, T/C (second compound 0.00316 µM, first compound 0.1 µM) 98.4% | viability, T/C (second compound 0.01 µM, first compound 0.000316 µM) 85.9% | viability, T/C (second compound 0.01 µM, first compound 0.001 µM) 90.6% | viability, T/C (second compound 0.01 µM, first compound 0.00316 µM) 91.8% | viability, T/C (second compound 0.01 µM, first compound 0.01 µM) 84% | viability, T/C (second compound 0.01 µM, first compound 0.0316 µM) 101% | viability, T/C (second compound 0.01 µM, first compound 0.1 µM) 90.5% | viability, T/C (second compound 0.0316 µM, first compound 0.000316 µM) 102% | viability, T/C (second compound 0.0316 µM, first compound 0.001 µM) 92.7% | viability, T/C (second compound 0.0316 µM, first compound 0.00316 µM) 89.8% | viability, T/C (second compound 0.0316 µM, first compound 0.01 µM) 97.6% | viability, T/C (second compound 0.0316 µM, first compound 0.0316 µM) 98.5% | viability, T/C (second compound 0.0316 µM, first compound 0.1 µM) 93.2% | viability, T/C (second compound 0.1 µM, first compound 0.000316 µM) 97.1% | viability, T/C (second compound 0.1 µM, first compound 0.001 µM) 92.4% | viability, T/C (second compound 0.1 µM, first compound 0.00316 µM) 104% | viability, T/C (second compound 0.1 µM, first compound 0.01 µM) 103% | viability, T/C (second compound 0.1 µM, first compound 0.0316 µM) 94.8% | viability, T/C (second compound 0.1 µM, first compound 0.1 µM) 88.9% | viability, T/C (second compound 0.316 µM, first compound 0.000316 µM) 112% | viability, T/C (second compound 0.316 µM, first compound 0.001 µM) 90.6% | viability, T/C (second compound 0.316 µM, first compound 0.00316 µM) 93.5% | viability, T/C (second compound 0.316 µM, first compound 0.01 µM) 99.4% | viability, T/C (second compound 0.316 µM, first compound 0.0316 µM) 90% | viability, T/C (second compound 0.316 µM, first compound 0.1 µM) 88.7% | viability, T/C (second compound 1 µM, first compound 0.000316 µM) 96.2% | viability, T/C (second compound 1 µM, first compound 0.001 µM) 99.3% | viability, T/C (second compound 1 µM, first compound 0.00316 µM) 116% | viability, T/C (second compound 1 µM, first compound 0.01 µM) 89.6% | viability, T/C (second compound 1 µM, first compound 0.0316 µM) 87.7% | viability, T/C (second compound 1 µM, first compound 0.1 µM) 76.2%

C[C@@H](NC(=O)c1ncnc(N)c1Cl)c1ncc(C(=O)Nc2cc(C(F)(F)F)c(Cl)cn2)s1
> 10000 nM: IC50 (curve of compound)
inactive: viability, T/C (compound 0.0316 µM) 103% [middle of 4 runs] | viability, T/C (compound 0.1 µM) 92.3% [middle of 4 runs] | viability, T/C (compound 0.316 µM) 112% [middle of 4 runs] | viability, T/C (compound 1 µM) 106% [middle of 4 runs] | viability, T/C (compound 3.16 µM) 109% [middle of 4 runs] | viability, T/C (compound 10 µM) 86.8% [middle of 4 runs]
